Measured values as given in patent US11731933B2, “Device and method for the desalination of water by means of thermal deionisation and liquid-phase ion extraction liquid” (ADIONICS, priority 2015, dated 2023).
≈ marks a conversion by molar mass, not a printed value. Where “and” joins values, the source holds several entries; their conditions need not be identical. Equal entries are not always repeated. Where two headings read alike, the source gives them in different places.

What was measured:
[1] = Solubility in water (UV-visible spectrometry); type: physicochemical; details: for solubility: water
Description: The hydrophobicity or solubility of a compound can be measured by standard methods and in particular by UV-visible spectrometry.

pKa in water at 25° C. = type: physicochemical
Method: The pKa (or acid constant) is defined as pKa=−log10(Ka), where Ka is the acid dissociation constant which is measured in a standard manner for such pKa. The recommended standard measurement method for high, basic pKa is preferably that described by Popov and al, IUPAC—Guidelines for NMR measurements for determination of high and low pKa Pure Apl. Chem., Vol. 78, No. 3, pp. 663-675, 2006.

Log P = type: physicochemical; details: for logP: Exp
[2] = NaCl extraction from 0.4M NaCl water by ASM + Calix[4]Est in chloroform (Example 11)
Method: The extraction composition is obtained by solubilizing an amount of 4-tert-butyl Calix[4]arene tetraethyl Ester (CAS No. 97600-39-0) and ASM in chloroform CHCl3 to obtain a final concentration after solubilization of the CEM and ASM of 0.3 mol/L for Calix[4]Est and of 0.3 mol/L for ASM, respectively. These sealed formulations were then orbitally stirred at 500 rpm for 2 hours after adding an equivalent volume of twice distilled water to allow water saturation of the entire formulation and control of pH output (pH=7). The extraction composition is then put to stand to settle. All the compositions tested are stable and rapidly decanted (a few minutes at the most).
A 0.4 mol/L NaCl aqueous solution was prepared from twice distilled water.
The organic extraction composition is then slightly heated to promote solubilization of the compounds by hot air gun (temperature of about 50 to 60° C.) for a few seconds (10 to 30 seconds) until a clear solution is obtained.
3 mL of the organic extraction composition is then removed from the lower phase of the settled two-phase mixture and transferred to a vial containing 3 mL of salt water at 0.4 M NaCl and then the flask is sealed and orbitally stirred (at 500 revolutions per minute), for 2 hours at room temperature (RT), that is to say between 20 and 25° C. In the case of extraction at 60° C., magnetic stirring (at 500 revolutions per minute), for 2 hours, is carried out with indirect heating in a metal mold on a heating plate. It is verified that droplets of the order of 1-2 mm are present during these agitations in order to be certain to achieve equilibrium in the NaCl distribution between the two liquid phases at the end of stirring. The appearance of the organic and aqueous phases is clear and colorless or slightly cloudy.
After stirring for 2 hours, stirring is stopped and the solution is put to stand to settle within 10 minutes, at least until the two phases have completely separated off, at the temperature of the test. The upper aqueous phase is then removed and then stirred and diluted for analysis of its salinity by a Metrohm Ion Chromatograph incorporating a suitable cation analysis column and a suitable anion analysis column. Similarly, the initial aqueous solution of NaCl at 0.4M is also analyzed by this ion chromatograph to determine its relative molar concentration in sodium and in chlorides. AN extractions and analyzes were duplicated.

[3] = NaCl extraction from 0.2M NaCl water by ASM/CEM composition, ion chromatography of treated water; details: ASM: 3TFMPhOH; CEM 0.2M; NaCl 0.2M water
Method: To 3 mL of 3-(trifluoromethyl)phenol, was added 217 mg of Dibenzo-18-crown-6 in order to obtain a formulation with 0.2 mole/L of DB18C6. This sealed formulation was then orbitally stirred at 500 rpm overnight after 1 mL of distilled water was added twice to allow water saturation of the whole.
The next morning, an aqueous 0.2 mol/L NaCl solution was prepared from twice distilled water, while the formulation that was stirred overnight was allowed to stand for decantation. A clear decantation of the two colorless phases is obtained in a few minutes. 3 mL of the organic extraction solution is then removed and transferred to a flask containing 3 mL of this salt water containing 0.2 M NaCl, then the flask is sealed and orbitally stirred (usually 500 rpm), for 3 hours and at room temperature. It is verified that droplets of the order of 1-2 mm are present in quantity at the selected stirring speed (400 to 900 rpm).
After stirring for 2 hours, stirring is stopped and the whole is left to stand for decantation for at least 10 minutes until the two phases are completely separated. The upper aqueous phase is then removed and then stirred and diluted for analysis of its salinity by a Metrohm Ion Chromatography Incorporating a suitable cation analysis column and a suitable anion analysis column. Similarly, the initial aqueous solution of 0.2M NaCl is also analyzed by this ion chromatography equipment to determine its relative concentration of sodium and chlorides. […]

[4] = methanol, published complexing constants; cited from earlier work
[5] = methanol; cited from earlier work
[6] = NaCl extraction from 0.2M NaCl water by ASM/CEM composition, ion chromatography of treated water; details: dichloromethane instead of 3TFMPhOH
[7] = RT, CEM 0.3 Mol/L, ASM 0.3 Mol/L in CHCl3, 0.4 M NaCl

| SMILES | pKa (pKa in water at 25° C.) | Solubility in water [1] [µM] | Extraction rate at 23° C., Cl− [3] [%] | Extraction rate at 23° C., Na+ [3] [%] | Extraction rate at 23° C., mean NaCl [3] [%] | Log K(Na+, MeOH, 25° C.) [4] | Log K(K+, MeOH, 25° C.) [5] | also measured |
| --- | --- | --- | --- | --- | --- | --- | --- | --- |
| OCc1cc(C(F)(F)C(F)(F)C(F)(F)C(F)(F)F)cc(C(F)(F)C(F)(F)C(F)(F)C(F)(F)F)c1 | 14 | – | – | – | – | – | – | solubility [1]: 0.5 µM (≈ 0.272 µg/mL) |
| OCc1cc(C(F)(F)F)c(C(F)(F)F)c(C(F)(F)F)c1 | 13.6 | – | – | – | – | – | – | solubility ([1]; read-out: Solubility in water): 390 µM (≈ 122 µg/mL) |
| Oc1cccc(C(F)(F)F)c1 [ASM 1, 3-(Trifluoromethyl)phenol] | 8.68 | – | – | – | – | – | – | Log P (Log P): 2.95 |
| OCc1cccc(C(F)(F)F)c1 [ASM 2, [3-(Trifluoromethyl)phenyl]methanol] | 14.7 | 32000 (≈ 5640 µg/mL) | – | – | – | – | – | – |
| OCc1cc(C(F)(F)F)cc(C(F)(F)F)c1 [ASM 3, [3,5-Bis(Trifluoromethyl)phenyl]methanol] | 14.7 | – | – | – | – | – | – | solubility ([1]; read-out: Solubility in water): 2290 µM (≈ 559 µg/mL); NaCl - 20° C. % ext (average) ([2]; 20° C., average molar extraction): 7.9%; Mol % Cl- extracted from the water to be treated ([2]; 60° C., CEM 0.3 Mol/L, ASM 0.3 Mol/L in CHCl3, 0.4 M NaCl): not detected; NaCl - 60° C. % ext (average) ([2]; 60° C., average molar extraction): 0.0%; Mol % Cl- extracted from the water to be treated [2, 7]: 8.2% and 8.8%; Mol % Na+ extracted from the water to be treated [2, 7]: 6.8% and 7.6%; Δ % ext ([2]; difference 20° C. minus 60° C.): 7.9% |
| OCc1cccc(C(F)(F)C(F)(F)C(F)(F)C(F)(F)F)c1 [ASM 5, [3-(Perfluorobutyl)phenyl]methanol] | 14.7 | < 77 | – | – | – | – | – | solubility [1]: < 77 µM |
| OCc1cc(C(F)(F)C(F)(F)C(F)(F)F)cc(C(F)(F)C(F)(F)C(F)(F)F)c1 [ASM 6, [3,5-(Perfluoropropyl)phenyl]methanol] | 14.2 | – | – | – | – | – | – | solubility [1]: < 70 µM |
| c1ccc2c(c1)OCCOCCOCCOCCO2 [B15C5, Benzo[b]-1,4,7,10,13-pentaoxa-cyclopentadecane] | – | – | 12.5 | 17.2 | 14.8 | 3.03 | 3.93 | logP (Log P): 0.91 |
| c1ccc2c(c1)OCCOCCOc1ccccc1OCCOCCO2 [DB18C6, Dibenzo[b,k]-1,4,7,10,13,16-hexaoxacyclooctadecane] | – | 1100 (≈ 396 µg/mL) | 38.8 | 30.8 | 34.6 | 4.36-4.49 | 5.12 | logP (Log P): 2.2; NaCl extraction with the ASM replaced by dichloromethane [6]: ≤ 1.6% |
| c1ccc2c(c1)OCCOCCOCCOc1ccccc1OCCOCCO2 [DB21C7, 6,7,9,10,12,13,20,21,23,24-Decahydrodibenzo[b,k][1,4,7,10,13,16,19] heptaoxacyclohenicosine] | – | – | 20.7 | 9.4 | 15.2 | 2.4 | 4.19 | – |
| c1ccc2c(c1)OCCOCCOCCOc1ccccc1OCCOCCOCCO2 [DB24C8, 6,7,9,10,12,13,20,21,23,24,26,27-Dodecahydrodibenzo[b,n][1,4,7,10,13,16,19,22] octaoxacyclotetracosine] | – | – | 37.1 | 35.5 | 36.3 | 2.25 and 2.35 | 3.61 | logP (Log P): 2.11 |
| c1ccc2c(c1)OCCN1CCOCCOCCN(CCO2)CCOc2ccccc2OCC1 [DB[2.2.2], 5,6,14,15-DiBenzo-4,7,13,16,21,24-hexaoxa-1,10-diazabicyclo[8.8.8] hexacosane] | – | 2500 (≈ 1180 µg/mL) | – | – | – | 7.60 | 8.74 | – |
| C1CCC2OCCOCCOC3CCCCC3OCCOCCOC2C1 (stereo not shown) [DC18C6, Dicyclohexano-1,4,7,10,13,16-hexaoxacyclooctadecane] | – | 36000 (≈ 13400 µg/mL) | 30.3 | 29.1 | 29.7 | 4.27 | 5.97 | – |
| C1CCC2OCCN3CCOCCOCCN(CCOC2C1)CCOC1CCCCC1OCC3 (stereo not shown) [DC[2.2.2], 5,6,14,15-DiCyclohexano-4,7,13,16,21,24-hexaoxa-1,10-diazabicyclo[8.8.8] hexacosane] | – | 3000 (≈ 1450 µg/mL) | – | – | – | 6.02 | 6.92 | – |
